ChEMBL document CHEMBL4732071, “Discovery of selective HDAC/BRD4 dual inhibitors as epigenetic probes” (Eur J Med Chem, 2021)
Activity calls are given as the source filed them. No cut-off for these calls is given here.

Columns and labels:
[1] = molecular target: T1, Histone deacetylase 1 (Homo sapiens, UniProt Q13547); experiment: Inhibition of HDAC1 (unknown origin) by fluorescence based assay
[2] = molecular target: T2, Bromodomain-containing protein 4 (Homo sapiens, UniProt O60885); experiment: Inhibition of BRD4 in human MV4-11 cells assessed as reduction in c-Myc expression measured after 24 hrs by Western blot analysis; format: cell-based; conditions: dose 10-1000 nM
[3] = molecular target: T1, Histone deacetylase 1; experiment: Inhibition of HDAC1 in human MV4-11 cells assessed as increase in acetylated H3 at 10 to 1000 nM incubated for 24 hrs by Western blot analysis; format: cell-based; conditions: dose 10-1000 nM
[4] = molecular target: T2, Bromodomain-containing protein 4; experiment: Inhibition of His-tagged BRD4 bromodomain 1 (unknown origin) using [Lys (5,8,12,16) Ac] H4(1-21) as substrate by fluorescence based assay
[5] = molecular target: T3, Protein deacetylase HDAC6 (Homo sapiens, UniProt Q9UBN7); experiment: Inhibition of HDAC6 (unknown origin) by fluorescence based assay
T3 sequence (Q9UBN7 whole entry): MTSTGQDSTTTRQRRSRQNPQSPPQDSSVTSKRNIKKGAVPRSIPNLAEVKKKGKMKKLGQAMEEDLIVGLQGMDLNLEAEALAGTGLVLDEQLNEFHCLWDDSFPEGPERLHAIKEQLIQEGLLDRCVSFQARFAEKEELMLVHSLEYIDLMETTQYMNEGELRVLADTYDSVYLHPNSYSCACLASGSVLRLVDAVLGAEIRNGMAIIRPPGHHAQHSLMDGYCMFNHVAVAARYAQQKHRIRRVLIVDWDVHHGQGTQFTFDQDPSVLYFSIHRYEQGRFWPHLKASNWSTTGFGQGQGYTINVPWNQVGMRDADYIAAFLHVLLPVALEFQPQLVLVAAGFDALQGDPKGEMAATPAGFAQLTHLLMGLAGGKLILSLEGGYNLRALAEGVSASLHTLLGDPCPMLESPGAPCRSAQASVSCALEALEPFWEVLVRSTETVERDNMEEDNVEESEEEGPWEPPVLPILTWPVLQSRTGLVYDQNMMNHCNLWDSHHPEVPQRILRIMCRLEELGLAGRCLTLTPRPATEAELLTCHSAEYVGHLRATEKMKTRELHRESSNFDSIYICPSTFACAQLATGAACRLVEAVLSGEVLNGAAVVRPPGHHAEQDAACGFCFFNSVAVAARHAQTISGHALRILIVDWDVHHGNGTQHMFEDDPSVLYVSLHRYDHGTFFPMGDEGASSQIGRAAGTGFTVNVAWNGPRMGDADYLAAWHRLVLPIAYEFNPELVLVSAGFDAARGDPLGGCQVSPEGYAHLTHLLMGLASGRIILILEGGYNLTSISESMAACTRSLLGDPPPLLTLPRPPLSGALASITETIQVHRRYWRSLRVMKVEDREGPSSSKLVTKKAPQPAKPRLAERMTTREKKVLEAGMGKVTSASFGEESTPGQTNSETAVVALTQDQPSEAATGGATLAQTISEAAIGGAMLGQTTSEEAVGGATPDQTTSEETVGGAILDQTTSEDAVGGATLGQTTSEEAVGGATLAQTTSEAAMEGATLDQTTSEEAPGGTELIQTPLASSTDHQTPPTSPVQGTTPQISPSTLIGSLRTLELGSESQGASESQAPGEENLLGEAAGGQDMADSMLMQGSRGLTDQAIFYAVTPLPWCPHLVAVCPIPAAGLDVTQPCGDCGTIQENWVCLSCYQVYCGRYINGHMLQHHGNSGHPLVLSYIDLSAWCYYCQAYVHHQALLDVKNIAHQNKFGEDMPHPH

[6] = molecular target: T4, Histone deacetylase 8 (Homo sapiens, UniProt Q9BY41); experiment: Inhibition of HDAC8 (unknown origin) by fluorescence based assay
T4 sequence (Q9BY41 whole entry): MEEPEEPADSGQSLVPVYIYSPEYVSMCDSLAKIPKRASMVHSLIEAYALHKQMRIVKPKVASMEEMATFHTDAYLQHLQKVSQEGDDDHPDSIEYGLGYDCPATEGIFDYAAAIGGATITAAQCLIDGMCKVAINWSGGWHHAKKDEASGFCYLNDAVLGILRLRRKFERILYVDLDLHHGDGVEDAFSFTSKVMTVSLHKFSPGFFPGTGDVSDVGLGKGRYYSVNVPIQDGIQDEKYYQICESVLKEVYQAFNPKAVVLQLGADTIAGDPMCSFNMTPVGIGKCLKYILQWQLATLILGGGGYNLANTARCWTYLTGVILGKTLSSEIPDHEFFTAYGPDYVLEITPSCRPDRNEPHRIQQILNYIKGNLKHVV

[7] = molecular target: T5, Histone deacetylase 11 (Homo sapiens, UniProt Q96DB2); experiment: Inhibition of HDAC11 (unknown origin) by fluorescence based assay
T5 sequence (Q96DB2 whole entry): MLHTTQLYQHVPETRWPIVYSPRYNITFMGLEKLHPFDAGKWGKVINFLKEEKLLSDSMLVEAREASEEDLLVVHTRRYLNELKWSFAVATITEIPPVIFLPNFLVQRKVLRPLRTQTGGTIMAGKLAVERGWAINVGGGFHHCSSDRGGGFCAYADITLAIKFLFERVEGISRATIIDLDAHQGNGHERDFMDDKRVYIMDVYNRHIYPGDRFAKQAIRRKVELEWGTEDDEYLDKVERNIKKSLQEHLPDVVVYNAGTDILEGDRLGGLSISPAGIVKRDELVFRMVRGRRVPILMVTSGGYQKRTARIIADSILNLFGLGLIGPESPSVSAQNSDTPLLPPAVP

[8] = molecular target: Histone deacetylase 4 (Homo sapiens, UniProt P56524); experiment: Inhibition of HDAC4 (unknown origin) by fluorescence based assay
[9] = molecular target: Histone deacetylase 3 (Homo sapiens, UniProt O15379); experiment: Inhibition of HDAC3 (unknown origin) by fluorescence based assay
[10] = test system: MV4-11; experiment: Induction of apoptosis in human MV4-11 cells at 1000 nM after 24 hrs by flow cytometry relative to control; format: functional
[11] = test system: MV4-11; experiment: Antiproliferative activity against human MV4-11 cells assessed as cell viability after 72 hrs by CCK8 assay; format: functional, cell-based; conditions: MV4-11, 72 h
[12] = molecular target: T2, Bromodomain-containing protein 4; experiment: Inhibition of His-tagged BRD4 bromodomain 2 (unknown origin) using [Lys (5,8,12,16) Ac] H4(1-21) as substrate by fluorescence based assay
[13] = molecular target: T6, Protein deacetylase HDAC6 (Homo sapiens) (UniProt Q9UBN7); experiment: Inhibition of HDAC6 in human MV4-11 cells assessed as increase in acetylated alpha-tubulin at 10 to 1000 nM incubated for 24 hrs by Western blot analysis; format: cell-based; conditions: dose 10-1000 nM
T6 sequence (whole entry): T3 sequence (Q9UBN7 whole entry)

[14] = molecular target: T2, Bromodomain-containing protein 4; experiment: Inhibition of BRD4 in human MV4-11 cells assessed as reduction in c-Myc expression at 10 to 1000 nM measured after 24 hrs by Western blot analysis; format: cell-based; conditions: dose 10-1000 nM
[15] = test system: MV4-11; experiment: Induction of cell cycle arrest in human MV4-11 cells assessed as accumulation at G0/G1 phase at 1000 nM after 24 hrs by flow cytometry; format: functional, cell-based
[16] = molecular target: T1, Histone deacetylase 1; experiment: Inhibition of HDAC1 in human MV4-11 cells assessed as increase in acetylated H3 at 1 uM incubated for 24 hrs by Western blot analysis; format: cell-based
[17] = molecular target: T6, Protein deacetylase HDAC6 (Homo sapiens); experiment: Inhibition of HDAC6 in human MV4-11 cells assessed as increase in acetylated alpha-tubulin at 1 uM incubated for 24 hrs by Western blot analysis; format: cell-based
[18] = molecular target: T2, Bromodomain-containing protein 4; experiment: Inhibition of BRD4 in human MV4-11 cells assessed as upregulation of p21 expression at 10 to 1000 nM measured after 24 hrs by Western blot analysis; format: cell-based; conditions: dose 10-1000 nM

T1 sequence (Q13547 whole entry): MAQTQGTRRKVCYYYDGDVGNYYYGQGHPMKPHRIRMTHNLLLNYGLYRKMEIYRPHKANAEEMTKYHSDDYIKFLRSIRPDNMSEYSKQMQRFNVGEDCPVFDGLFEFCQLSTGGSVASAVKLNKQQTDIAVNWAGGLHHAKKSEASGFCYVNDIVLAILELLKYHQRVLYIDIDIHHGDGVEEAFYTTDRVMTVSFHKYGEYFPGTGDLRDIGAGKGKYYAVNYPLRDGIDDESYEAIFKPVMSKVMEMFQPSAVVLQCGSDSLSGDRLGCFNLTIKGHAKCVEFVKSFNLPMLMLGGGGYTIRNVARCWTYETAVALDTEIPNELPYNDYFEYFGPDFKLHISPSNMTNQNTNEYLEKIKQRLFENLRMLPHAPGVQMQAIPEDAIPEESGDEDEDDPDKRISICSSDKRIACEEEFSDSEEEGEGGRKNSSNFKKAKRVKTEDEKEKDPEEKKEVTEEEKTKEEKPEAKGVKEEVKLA
Histone deacetylase 4, sequence (P56524 whole entry): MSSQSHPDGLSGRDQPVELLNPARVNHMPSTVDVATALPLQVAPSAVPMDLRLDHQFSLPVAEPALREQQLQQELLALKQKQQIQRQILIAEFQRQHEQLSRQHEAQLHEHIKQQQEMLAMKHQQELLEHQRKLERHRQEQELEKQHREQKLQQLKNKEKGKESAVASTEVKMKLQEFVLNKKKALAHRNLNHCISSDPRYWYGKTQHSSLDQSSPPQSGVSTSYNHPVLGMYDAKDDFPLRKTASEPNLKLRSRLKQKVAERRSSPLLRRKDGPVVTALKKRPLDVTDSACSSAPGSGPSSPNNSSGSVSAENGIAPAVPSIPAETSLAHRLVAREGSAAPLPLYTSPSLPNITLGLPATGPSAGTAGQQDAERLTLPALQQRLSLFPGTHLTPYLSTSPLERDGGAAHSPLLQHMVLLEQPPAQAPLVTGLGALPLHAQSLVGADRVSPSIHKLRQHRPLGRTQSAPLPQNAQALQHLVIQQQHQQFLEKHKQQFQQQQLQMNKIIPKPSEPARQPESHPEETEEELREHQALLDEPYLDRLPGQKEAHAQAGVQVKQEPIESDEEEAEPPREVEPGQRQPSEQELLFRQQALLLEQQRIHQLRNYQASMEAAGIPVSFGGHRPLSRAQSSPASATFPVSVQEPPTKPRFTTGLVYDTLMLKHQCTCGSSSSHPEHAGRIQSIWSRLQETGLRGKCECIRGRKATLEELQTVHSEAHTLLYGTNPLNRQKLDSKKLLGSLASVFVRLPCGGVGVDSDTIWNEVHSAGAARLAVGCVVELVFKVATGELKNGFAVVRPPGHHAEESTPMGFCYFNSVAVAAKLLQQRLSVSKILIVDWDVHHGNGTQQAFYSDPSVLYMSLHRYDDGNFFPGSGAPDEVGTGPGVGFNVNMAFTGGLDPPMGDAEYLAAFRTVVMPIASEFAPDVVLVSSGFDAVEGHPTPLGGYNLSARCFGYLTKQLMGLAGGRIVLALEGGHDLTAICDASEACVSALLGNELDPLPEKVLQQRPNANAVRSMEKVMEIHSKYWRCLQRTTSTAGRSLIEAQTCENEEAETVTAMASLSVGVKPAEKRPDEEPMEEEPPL
Histone deacetylase 3, sequence (O15379 whole entry): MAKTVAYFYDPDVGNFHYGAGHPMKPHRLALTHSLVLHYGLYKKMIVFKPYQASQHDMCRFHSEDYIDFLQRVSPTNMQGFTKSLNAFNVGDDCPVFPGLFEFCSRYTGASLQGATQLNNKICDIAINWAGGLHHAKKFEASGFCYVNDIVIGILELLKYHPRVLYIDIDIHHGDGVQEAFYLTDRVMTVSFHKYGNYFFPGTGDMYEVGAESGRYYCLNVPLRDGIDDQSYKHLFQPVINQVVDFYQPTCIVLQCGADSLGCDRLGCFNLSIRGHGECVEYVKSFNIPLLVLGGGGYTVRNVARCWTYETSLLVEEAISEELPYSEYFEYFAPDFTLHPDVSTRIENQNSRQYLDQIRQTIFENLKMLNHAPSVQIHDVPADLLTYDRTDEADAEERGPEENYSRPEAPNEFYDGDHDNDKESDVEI

| Compound | IC50 [1] | inhibition [2] | inhibition [3] | IC50 [4] | IC50 [5] | IC50 [6] | IC50 [7] | IC50 [8] | IC50 [9] | IC50 [11] | IC50 [12] | Acetylated alpha-tubulin increase (active/not active) [13] | inhibition [14] | inhibition [16] | inhibition [17] | inhibition [18] | Activity [10] | Activity [15] |
| --- | --- | --- | --- | --- | --- | --- | --- | --- | --- | --- | --- | --- | --- | --- | --- | --- | --- | --- |
| Cn1cc(-c2ccccc2Oc2ccccc2)c2cc(C(=O)NCCCCC(=O)NO)[nH]c2c1=O | 142 nM |  |  | 13.1 nM | 4 nM |  |  |  |  | 180 nM | 4.8 nM | inactive | Active |  |  |  |  |  |
| Cc1cc(F)cc(C)c1Oc1ccc(C(C)(C)O)cc1-c1cn(C)c(=O)c2[nH]c(C(=O)NCCCCCCC(=O)NO)cc12 | 228 nM | Active |  | 369 nM | 17.2 nM | 583 nM | 2750 nM | > 10000 nM | 161 nM | 300 nM | 1.2 nM | Active |  |  |  |  | 19.29% | Active |
| Cn1cc(-c2ccccc2Oc2ccccc2)c2cc(C(=O)NCc3ccc(C(=O)NO)cc3)[nH]c2c1=O | 168 nM |  | inactive | 42.1 nM | 15.3 nM |  |  |  |  | 570 nM | 11.3 nM | Active | Active |  |  |  |  |  |

Stronger by IC50 [1], values ahead:

| IC50 [1] | inhibition [2] | inhibition [3] | IC50 [4] | IC50 [5] | IC50 [6] | IC50 [7] | IC50 [8] | IC50 [9] | IC50 [11] | IC50 [12] | Acetylated alpha-tubulin increase (active/not active) [13] | inhibition [14] | inhibition [16] | inhibition [17] | inhibition [18] | Compound | Activity [10] | Activity [15] |
| --- | --- | --- | --- | --- | --- | --- | --- | --- | --- | --- | --- | --- | --- | --- | --- | --- | --- | --- |
| 126 nM |  | Active | 31.7 nM | > 500 nM |  |  |  |  | 80 nM | 18.7 nM | inactive | Active |  |  | Active | Cn1cc(-c2ccccc2Oc2ccccc2)c2cc(C(=O)NCc3ccc(C(=O)Nc4ccccc4N)cc3)[nH]c2c1=O |  |  |
| 59.7 nM | Active | Active | 5.6 nM |  | > 10000 nM | > 10000 nM | > 10000 nM | 1440 nM | 40 nM | 2.1 nM |  |  |  |  |  | CC(C)Oc1ccc(C(C)(C)O)cc1-c1cn(C)c(=O)c2[nH]c(C(=O)NCc3ccc(C(=O)Nc4ccccc4N)cc3)cc12 | 57.31% |  |
| 29.5 nM |  |  | 38.6 nM | 4.7 nM |  |  |  |  | 180 nM | 5.3 nM |  | Active | Active | Active |  | Cn1cc(-c2ccccc2Oc2ccccc2)c2cc(C(=O)NCCCCCCC(=O)NO)[nH]c2c1=O |  |  |
| 19.4 nM | Active | Active | 29.5 nM | 5.4 nM | 99.6 nM | > 10000 nM | > 10000 nM | 36.4 nM | 160 nM | 6 nM | Active |  |  |  |  | CC(C)Oc1ccc(C(C)(C)O)cc1-c1cn(C)c(=O)c2[nH]c(C(=O)NCCCCCCC(=O)NO)cc12 | 53.73% |  |
